Laboratory results taken from ChEMBL document CHEMBL1201862, “PubChem BioAssay data set” (2004).
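Cells were grown in 96-well plates and exposed to each compound for 48 hours at five concentrations; endpoints were interpolated linearly between bracketing concentrations, or set to the highest concentration if not reached. GI50 marks 50% less growth.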 Activity calls are given as the source filed them. Cut-off read from the data, not from the text of the source: active = GI50 up to about 1.1 µM and inactive = higher.

Experiments:
Assay in all cases: NCI-60 cell line screen, 48 h
SK-OV-3 = system: SK-OV-3
OVCAR-5 = system: OVCAR-5
UO-31 = system: UO-31
A498 = system: A498
SK-MEL-2 = system: SK-MEL-2
DMS-114 = system: DMS-114
NCI-H23 = system: NCI-H23
U-251 = system: U-251
NCI-H226 = system: NCI-H226
SNB-19 = system: SNB-19
SW-620 = system: SW-620
BT-549 = system: BT-549
OVCAR-4 = system: OVCAR-4
HOP-92 = system: HOP-92
KM12 = system: KM12
UACC-257 = system: UACC-257
HCC 2998 = system: HCC 2998
NCI/ADR-RES = system: NCI/ADR-RES
MDA-N = system: MDA-N
SF-539 = system: SF-539
HL-60 = system: HL-60
HCT-15 = system: HCT-15
NCI-H522 = system: NCI-H522
OVCAR-3 = system: OVCAR-3
SK-MEL-5 = system: SK-MEL-5
Hs-578T = system: Hs-578T
LXFL 529 = system: LXFL 529
HOP-18 = system: HOP-18
SF-295 = system: SF-295
KM-20L2 = system: KM-20L2
IGROV-1 = system: IGROV-1
HOP-62 = system: HOP-62
A549 = system: A549
CCRF-CEM = system: CCRF-CEM
UACC-62 = system: UACC-62
NCI-H460 = system: NCI-H460
RXF 393 = system: RXF 393
EKVX = system: EKVX
TK-10 = system: TK-10
SN12C = system: SN12C
OVCAR-8 = system: OVCAR-8
SNB-75 = system: SNB-75
786-0 = system: 786-0
LOX IMVI = system: LOX IMVI
SR = system: SR
MOLT-4 = system: MOLT-4
ACHN = system: ACHN
DLD-1 = system: DLD-1
SK-MEL-28 = system: SK-MEL-28
MDA-MB-231 = system: MDA-MB-231
MDA-MB-435 = system: MDA-MB-435
PC-3 = system: PC-3
CAKI-1 = system: CAKI-1
MCF7 = system: MCF7
COLO 205 = system: COLO 205
Malme-3M = system: Malme-3M
DMS-273 = system: DMS-273
XF498 = system: XF498
DU-145 = system: DU-145
HCT-116 = system: HCT-116
RPMI-8226 = system: RPMI-8226
SF-268 = system: SF-268
HT-29 = system: HT-29
K562 = system: K562
T47D = system: T47D
M14 = system: M14
M19-MEL = system: M19-MEL
SNB-78 = system: SNB-78

In the case of `CCCCCC/C=C1\CCC(CN(C)C)C1=O` (stereo unspecified), the GI50 (SK-OV-3) is reported as 20.3 µM (inactive), the GI50 (OVCAR-5) is reported as 16.9 µM (inactive) and the GI50 (UO-31) is reported as 15.4 µM (inactive). The GI50 (A498) was 17 µM (inactive), the GI50 (SK-MEL-2) was 13 µM (inactive) and the GI50 (DMS-114) was 4.24 µM (inactive). For the same molecule, the GI50 (NCI-H23) was 8.73 µM (inactive), the GI50 (U-251) was 4.25 µM (inactive) and the GI50 (NCI-H226) was 18.7 µM (inactive). The GI50 (SNB-19) was 15.4 µM (inactive), the GI50 (SW-620) was 2.56 µM (inactive) and the GI50 (BT-549) was 18.9 µM (inactive). For the same molecule, the GI50 (OVCAR-4) was 19.6 µM (inactive), the GI50 (HOP-92) was 11.4 µM (inactive) and the GI50 (KM12) was 2.48 µM (inactive). The GI50 (UACC-257) was 7.71 µM (inactive), the GI50 (HCC 2998) was 5.74 µM (inactive) and the GI50 (NCI/ADR-RES) was 7.38 µM (inactive). The GI50 (MDA-N) was 5.47 µM (inactive), the GI50 (SF-539) was 15.1 µM (inactive) and the GI50 (HL-60) was 1.52 µM (inactive). The GI50 (HCT-15) was 2.44 µM, the GI50 (NCI-H522) was 2.85 µM (inactive) and the GI50 (OVCAR-3) was 6.61 µM (inactive). The GI50 (SK-MEL-5) was 14.3 µM (inactive), the GI50 (Hs-578T) was 7 µM (inactive) and the GI50 (LXFL 529) was 1.99 µM (inactive). The GI50 (HOP-18) was 15.4 µM (inactive), the GI50 (SF-295) was 12.7 µM (inactive) and the GI50 (KM-20L2) was 8.73 µM (inactive). The GI50 (IGROV-1) was 10.5 µM (inactive), the GI50 (HOP-62) was 19.6 µM (inactive) and the GI50 (A549) was 19.8 µM (inactive). The GI50 (CCRF-CEM) was 1.83 µM (inactive), the GI50 (UACC-62) was 5.64 µM (inactive) and the GI50 (NCI-H460) was 16.6 µM (inactive). The GI50 (RXF 393) was 3.51 µM (inactive), the GI50 (EKVX) was 16 µM (inactive) and the GI50 (TK-10) was 3.53 µM (inactive). For the same molecule, the GI50 (SN12C) was 3.74 µM (inactive), the GI50 (OVCAR-8) was 4.44 µM (inactive) and the GI50 (SNB-75) was 11 µM (inactive). For the same molecule, the GI50 (786-0) was 1.98 µM (inactive), the GI50 (LOX IMVI) was 1.89 µM (inactive) and the GI50 (SR) was 1.85 µM (inactive). For the same molecule, the GI50 (MOLT-4) was 3.05 µM (inactive), the GI50 (ACHN) was 9.64 µM (inactive) and the GI50 (DLD-1) was 2.23 µM (inactive). The GI50 (SK-MEL-28) was 4.14 µM (inactive), the GI50 (MDA-MB-231) was 6.43 µM (inactive) and the GI50 (MDA-MB-435) was 8.04 µM (inactive). For the same molecule, the GI50 (PC-3) was 11.5 µM (inactive), the GI50 (CAKI-1) was 4.75 µM (inactive) and the GI50 (MCF7) was 1.86 µM (inactive). For the same molecule, the GI50 (COLO 205) was 3.15 µM (inactive), the GI50 (Malme-3M) was 7.23 µM (inactive) and the GI50 (DMS-273) was 4.15 µM (inactive). For the same molecule, the GI50 (XF498) was 3.31 µM (inactive), the GI50 (DU-145) was 20.1 µM (inactive) and the GI50 (HCT-116) was 3.56 µM (inactive). The GI50 (RPMI-8226) was 0.641 µM (active), the GI50 (SF-268) was 5.35 µM (inactive) and the GI50 (HT-29) was 4.81 µM (inactive). For the same molecule, the GI50 (K562) was 2.4 µM (inactive), the GI50 (T47D) was 2.86 µM (inactive) and the GI50 (M14) was 4.73 µM (inactive). For the same molecule, the GI50 (M19-MEL) was 2.59 µM (inactive).
For `COc1ccccc1C1C(Cl)C(=O)N1NC(=O)Cc1ccccc1` (stereo unspecified), the GI50 (SK-OV-3) was 71.4 µM (inactive), the GI50 (OVCAR-5) was > 100 µM (inactive) and the GI50 (UO-31) was 32.1 µM (inactive). The GI50 (SK-MEL-2) was 53.7 µM (inactive), the GI50 (DMS-114) was 37.5 µM (inactive) and the GI50 (NCI-H23) was > 100 µM (inactive). For the same molecule, the GI50 (U-251) was > 100 µM (inactive), the GI50 (NCI-H226) was 48.5 µM (inactive) and the GI50 (SNB-19) was > 100 µM (inactive). For the same molecule, the GI50 (SW-620) was 52.4 µM (inactive), the GI50 (OVCAR-4) was 75.7 µM (inactive) and the GI50 (KM12) was > 100 µM (inactive). For the same molecule, the GI50 (UACC-257) was > 100 µM (inactive), the GI50 (HCC 2998) was 75.7 µM (inactive) and the GI50 (HL-60) was 34.8 µM (inactive). For the same molecule, the GI50 (HCT-15) was 73.6 µM, the GI50 (NCI-H522) was 48.3 µM (inactive) and the GI50 (OVCAR-3) was > 100 µM (inactive). For the same molecule, the GI50 (SK-MEL-5) was 61.9 µM (inactive), the GI50 (LXFL 529) was > 100 µM (inactive) and the GI50 (HOP-18) was 30.7 µM (inactive). The GI50 (SF-295) was > 100 µM (inactive), the GI50 (KM-20L2) was 75.9 µM (inactive) and the GI50 (IGROV-1) was > 100 µM (inactive). For the same molecule, the GI50 (HOP-62) was 82.4 µM (inactive), the GI50 (A549) was > 100 µM (inactive) and the GI50 (CCRF-CEM) was > 100 µM (inactive). For the same molecule, the GI50 (UACC-62) was 83.2 µM (inactive), the GI50 (NCI-H460) was > 100 µM (inactive) and the GI50 (RXF 393) was 53.1 µM (inactive). The GI50 (EKVX) was > 100 µM (inactive), the GI50 (TK-10) was > 100 µM (inactive) and the GI50 (SN12C) was > 100 µM (inactive). For the same molecule, the GI50 (OVCAR-8) was > 100 µM (inactive), the GI50 (SNB-78) was > 100 µM (inactive) and the GI50 (SNB-75) was 31.7 µM (inactive). The GI50 (786-0) was > 100 µM (inactive), the GI50 (LOX IMVI) was 50.5 µM (inactive) and the GI50 (SR) was 26.2 µM (inactive). For the same molecule, the GI50 (MOLT-4) was 27.7 µM (inactive), the GI50 (ACHN) was > 100 µM (inactive) and the GI50 (SK-MEL-28) was > 100 µM (inactive). For the same molecule, the GI50 (CAKI-1) was 82.4 µM (inactive), the GI50 (COLO 205) was > 100 µM (inactive) and the GI50 (Malme-3M) was 53.2 µM (inactive). The GI50 (DMS-273) was 43.3 µM (inactive), the GI50 (XF498) was > 100 µM (inactive) and the GI50 (HCT-116) was 62.8 µM (inactive). For the same molecule, the GI50 (RPMI-8226) was 46.5 µM (inactive), the GI50 (SF-268) was > 100 µM (inactive) and the GI50 (HT-29) was > 100 µM (inactive). The GI50 (K562) was 35.2 µM (inactive), the GI50 (M14) was > 100 µM (inactive) and the GI50 (M19-MEL) was > 100 µM (inactive).
